Source: US20260138961A1, “MODULATORS OF MITOCHONDRIAL DNA REPLICATION” (Pretzel Therapeutics, Inc., priority 2022, published 2026)

molecular target: T1, wild type human POLγ (POLγA:WT) (Homo sapiens, UniProt P54098); assay: DNA polymerization assay, wild type POLγ; assay type: biochemical; details: 0.1 μM dNTP, read-out: WT AC50 (μM) at 0.1 μM
T1 sequence (P54098 1-1239): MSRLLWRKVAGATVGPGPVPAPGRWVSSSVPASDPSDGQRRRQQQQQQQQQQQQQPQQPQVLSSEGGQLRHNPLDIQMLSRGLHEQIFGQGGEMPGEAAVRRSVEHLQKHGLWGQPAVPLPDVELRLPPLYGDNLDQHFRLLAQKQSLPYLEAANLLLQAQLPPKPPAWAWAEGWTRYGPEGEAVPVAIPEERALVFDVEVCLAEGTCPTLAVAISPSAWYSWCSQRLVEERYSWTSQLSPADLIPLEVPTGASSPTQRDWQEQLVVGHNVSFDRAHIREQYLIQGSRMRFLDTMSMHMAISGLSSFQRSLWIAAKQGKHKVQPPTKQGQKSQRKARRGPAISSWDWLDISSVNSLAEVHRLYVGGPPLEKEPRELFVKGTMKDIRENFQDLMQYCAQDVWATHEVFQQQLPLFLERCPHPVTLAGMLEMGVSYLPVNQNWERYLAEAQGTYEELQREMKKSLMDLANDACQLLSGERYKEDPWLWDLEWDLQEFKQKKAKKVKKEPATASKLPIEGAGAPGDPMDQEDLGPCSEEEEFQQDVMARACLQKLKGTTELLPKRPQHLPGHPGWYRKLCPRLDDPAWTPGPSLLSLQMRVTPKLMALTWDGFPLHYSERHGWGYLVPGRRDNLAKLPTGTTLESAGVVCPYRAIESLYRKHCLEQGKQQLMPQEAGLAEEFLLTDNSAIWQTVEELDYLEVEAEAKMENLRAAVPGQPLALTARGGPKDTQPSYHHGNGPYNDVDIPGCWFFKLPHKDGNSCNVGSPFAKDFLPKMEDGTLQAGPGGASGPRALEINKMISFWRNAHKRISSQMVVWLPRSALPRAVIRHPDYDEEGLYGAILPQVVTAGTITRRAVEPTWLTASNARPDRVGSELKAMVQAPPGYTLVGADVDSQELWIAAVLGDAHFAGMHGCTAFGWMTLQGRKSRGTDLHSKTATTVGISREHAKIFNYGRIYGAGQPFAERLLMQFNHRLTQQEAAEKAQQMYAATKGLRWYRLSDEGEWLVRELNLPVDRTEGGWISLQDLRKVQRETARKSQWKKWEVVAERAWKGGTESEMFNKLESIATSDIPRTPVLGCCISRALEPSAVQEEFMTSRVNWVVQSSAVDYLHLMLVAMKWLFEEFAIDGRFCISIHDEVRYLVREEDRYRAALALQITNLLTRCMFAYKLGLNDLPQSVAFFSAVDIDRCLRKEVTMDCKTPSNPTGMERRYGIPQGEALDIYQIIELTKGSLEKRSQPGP
T1 sequence (Q9UHN1 1-485 partner): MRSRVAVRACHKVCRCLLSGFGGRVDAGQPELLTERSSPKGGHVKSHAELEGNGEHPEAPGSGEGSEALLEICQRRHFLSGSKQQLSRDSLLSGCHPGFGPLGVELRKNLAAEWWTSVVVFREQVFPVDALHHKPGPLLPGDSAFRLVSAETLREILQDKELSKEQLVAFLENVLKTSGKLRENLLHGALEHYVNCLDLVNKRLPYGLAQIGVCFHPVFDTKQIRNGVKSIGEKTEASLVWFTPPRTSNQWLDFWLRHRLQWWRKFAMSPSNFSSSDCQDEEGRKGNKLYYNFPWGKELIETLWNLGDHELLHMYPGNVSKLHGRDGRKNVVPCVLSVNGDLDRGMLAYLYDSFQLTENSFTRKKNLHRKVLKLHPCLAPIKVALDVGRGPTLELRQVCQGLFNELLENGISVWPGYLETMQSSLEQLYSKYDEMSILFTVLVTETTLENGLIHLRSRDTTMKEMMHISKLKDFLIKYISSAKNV
Method: DNA Polymerization Assay to Monitor Effects on Human Wildtype POLγ and Four Disease-Causing Mutant Variants of Human POLγ.
The ability of small molecules to stimulate the polymerase activity of POLγ was analyzed in a quantitative fluorescence SYBR Green I assay with fluorescence intensity (FI) readout.
In the presence of dNTPs, wild type human POLγ and mutant derivatives thereof were incubated with single-stranded, circular M13mp18 ssDNA hybridized to a short DNA oligonucleotide that functions as a primer for initiation of DNA synthesis. POLγ and mutant derivatives thereof will extend the primer and use the M13mp18 molecule as a template to synthesize long stretches of double-stranded DNA. SYBR Green I, which is a double-stranded DNA-binding dye, was used to quantify formation of double-stranded DNA in the reaction. When bound to double-stranded DNA, SYBR Green I fluorescence increases by up to 100-fold.
The assay was performed in the 384-well plate format. Upon addition of compounds, changes in double-stranded DNA synthesis activity can be monitored by following effects on fluorescent intensity.
The reactions also contained the accessory POLγB subunit, and the human mitochondrial single-stranded DNA binding protein (mtSSB).
The DNA template mixture used in the assay contained 0.5 nM primed M13 mp18 ssDNA, 400 nM mtSSB, 0.1 mM Tris-HCl (pH 8.0), 0.1 mM dNTP, 10 mM MgCl2, 0.1 mg/mL BSA, 1 mM TCEP solution, and 0.02% Triton X-100. The DNA template mixture for the wild type protein contained either 100 μM dNTP, 1 μM dNTP, or 0.1 μM dNTP, designated in Table 2 as 100 μM, 1 μM, and 0.1 μM, respectfully.
Microplates with compounds (0.1 μL in each well) to be tested in the assay were prepared from 10 mM compound stocks in 100% DMSO, and equal amounts of DMSO without any compound were added to positive and negative control wells.
The protein mixture was dispensed (5 μL into each well) into compound plates and incubated at 37° C. for 15 minutes. After incubation, 5 μL of the DNA template mixture was dispensed into each well. The plates were then incubated at 37° C. for 2 hours.
During incubation, a combined stop buffer and detection reagent solution was prepared. The buffer contained 25 mM EDTA (pH 8.0), 0.02% Triton X-100, and SYBR Green I [Invitrogen] diluted 10,000× (for fluorescent readout). EDTA will stop the enzymatic reaction by chelating magnesium ions.

AC50 [µM] | Compound
2 | Cc1ccc(C)c(S(=O)(=O)Nc2cccc(C(=O)N3CCOCC3)c2)c1 [Example 29, 2,5-dimethyl-N-(3-(morpholine-4-carbonyl)phenyl)benzenesulfonamide]
2 | CC(=O)N1CCN(C(=O)c2cccc(NS(=O)(=O)c3cc(C)ccc3C)c2)CC1 [Example 30, N-(3-(4-acetylpiperazine-1-carbonyl)phenyl)-2,5-dimethylbenzenesulfonamide]
12 | Cc1ccc(C)c(S(=O)(=O)Nc2cccc(C(=O)N3CCCCCC3)c2)c1 [Example 32, N-(3-(azepane-1-carbonyl)phenyl)-2,5-dimethylbenzenesulfonamide]
> 100 | Cc1ccc(C)c(S(=O)(=O)Nc2cccc(C(=O)N3CCSCC3C(N)=O)c2)c1 (stereo not drawn) [Example 41, 4-(3-((2,5-dimethylphenyl)sulfonamido)benzoyl) thiomorpholine-3-carboxamide]
2 | Cc1cc(S(=O)(=O)Nc2ccc(F)c(C(=O)N3CCC[C@H]3C)c2)c(C)cc1Cl [Example 49, (R)-4-chloro-N-(4-fluoro-3-(2-methylpyrrolidine-1-carbonyl)phenyl)-2,5-dimethylbenzenesulfonamide]
1 | Cc1cc(S(=O)(=O)Nc2cc(C(=O)N3CCC[C@H]3C)ccc2F)c(C)cc1Cl [Example 50, (R)-4-chloro-N-(2-fluoro-5-(2-methylpyrrolidine-1-carbonyl)phenyl)-2,5-dimethylbenzenesulfonamide]
6 | Cc1cc(S(=O)(=O)Nc2cccc(C(=O)N[C@H](C)CO)c2)c(C)cc1Cl [Example 51, (R)-3-((4-chloro-2,5-dimethylphenyl)sulfonamido)-N-(1-hydroxypropan-2-yl)benzamide]
1 | Cc1cc(S(=O)(=O)Nc2cccc(C(=O)N3CCN(C)C[C@H]3C)c2)c(C)cc1Cl [Example 54, (R)-4-chloro-N-(3-(2,4-dimethylpiperazine-1-carbonyl)phenyl)-2,5-dimethylbenzenesulfonamide]
3 | COCCN(C)C(=O)c1cccc(NS(=O)(=O)c2cc(C)c(Cl)cc2C)c1 [Example 58, 3-((4-chloro-2,5-dimethylphenyl)sulfonamido)-N-(2-methoxyethyl)-N-methylbenzamide]

same assay, conditions: 1 μM dNTP, read-out: WT AC50 (μM) at 1 μM

AC50 [µM] | Compound
0.4 | COc1ccccc1-c1nc(NS(=O)(=O)c2cc(C)c(Cl)cc2C)cs1 [Example 155, 4-chloro-N-(2-(2-methoxyphenyl)thiazol-4-yl)-2,5-dimethylbenzenesulfonamide]

same assay, conditions: 100 μM dNTP, read-out: WT AC50 (μM) at 100 μM

Compound | AC50 [µM]
Cc1cc(S(=O)(=O)Nc2cccc(C(=O)N(C)C(C)CO)c2)c(C)cc1Cl (single isomer, unassigned) [Example 15, 3-((4-chloro-2,5-dimethylphenyl)sulfonamido)-N-(1-hydroxypropan-2-yl)-N-methylbenzamide] | > 10
Cc1csc(-c2cccc(NS(=O)(=O)c3cc(C)c(Cl)cc3C)c2)n1 [Example 20, 4-chloro-2,5-dimethyl-N-(3-(4-methylthiazol-2-yl)phenyl)benzenesulfonamide] | 0.3
Cc1cnc(-c2cccc(NS(=O)(=O)c3cc(C)c(Cl)cc3C)c2)s1 [Example 21, 4-chloro-2,5-dimethyl-N-(3-(5-methylthiazol-2-yl)phenyl)benzenesulfonamide] | 1

Second part, the compound after the results:

AC50 [µM] | Compound
0.6 | Cc1ccc(C)c(S(=O)(=O)Nc2cccc(-c3nccs3)c2)c1 [Example 60]
0.7 | Cc1cc(S(=O)(=O)Nc2cccc(-c3cc(C4CC4)[nH]n3)c2)c(C)cc1Cl [Example 64, 4-chloro-N-(3-(5-cyclopropyl-1H-pyrazol-3-yl)phenyl)-2,5-dimethylbenzenesulfonamide]
8 | CC[C@@H]1CCCN1C(=O)c1cccc(NS(=O)(=O)c2cc(C)c(Cl)cc2C)c1 [Example 65, (R)-4-chloro-N-(3-(2-ethylpyrrolidine-1-carbonyl)phenyl)-2,5-dimethylbenzenesulfonamide]
0.5 | Cc1cc(-c2cccc(NS(=O)(=O)c3cc(C)c(Cl)cc3C)c2)n[nH]1 [Example 66, 4-chloro-2,5-dimethyl-N-(3-(5-methyl-1H-pyrazol-3-yl)phenyl)benzenesulfonamide]
> 10 | Cc1cc(S(=O)(=O)Nc2cccc(C(=O)N3CCC[C@H]3C(C)C)c2)c(C)cc1Cl [Example 67, (S)-4-chloro-N-(3-(2-isopropylpyrrolidine-1-carbonyl)phenyl)-2,5-dimethylbenzenesulfonamide]
0.2 | Cc1cc(S(=O)(=O)Nc2cccc(-c3cc[nH]n3)c2)c(C)cc1Cl [Example 68, N-(3-(1H-pyrazol-3-yl)phenyl)-4-chloro-2,5-dimethylbenzenesulfonamide]
1 | Cc1cc(S(=O)(=O)Nc2ccc3ccn(C(C)C)c3c2)c(C)cc1Cl [Example 69, 4-chloro-N-(1-isopropyl-1H-indol-6-yl)-2,5-dimethylbenzenesulfonamide]
11 | Cc1nc2ccc(NS(=O)(=O)c3cc(C)c(Cl)cc3C)cc2o1 [Example 70, 4-chloro-2,5-dimethyl-N-(2-methylbenzo[d]oxazol-6-yl)benzenesulfonamide]
0.4 | Cc1cc(S(=O)(=O)Nc2cccc(C(=O)N3CCCC34CC4)c2)c(C)cc1Cl [Example 162, N-(3-(4-azaspiro[2.4]heptane-4-carbonyl)phenyl)-4-chloro-2,5-dimethylbenzenesulfonamide]
0.7 | COc1cccc(-c2nc(NS(=O)(=O)c3cc(C)c(Cl)cc3C)cs2)c1 [Example 165, 4-chloro-N-(2-(3-methoxyphenyl)thiazol-4-yl)-2,5-dimethylbenzenesulfonamide]
2 | Cc1cc(S(=O)(=O)Nc2csc(C(=O)N3CCCC3)n2)c(C)cc1Cl [Example 166, 4-chloro-2,5-dimethyl-N-(2-(pyrrolidine-1-carbonyl)thiazol-4-yl)benzenesulfonamide]
